ChEMBL document CHEMBL1949597, “Novel vitamin D receptor ligands bearing a spherical hydrophobic core structure--comparison of bicyclic hydrocarbon derivatives with boron cluster derivatives” (Bioorg Med Chem Lett, 2012)
The source made the active and inactive calls. No cut-off for these calls is given here.

Target: T1, Vitamin D3 receptor (Homo sapiens) (UniProt P11473)
T1 sequence (whole entry): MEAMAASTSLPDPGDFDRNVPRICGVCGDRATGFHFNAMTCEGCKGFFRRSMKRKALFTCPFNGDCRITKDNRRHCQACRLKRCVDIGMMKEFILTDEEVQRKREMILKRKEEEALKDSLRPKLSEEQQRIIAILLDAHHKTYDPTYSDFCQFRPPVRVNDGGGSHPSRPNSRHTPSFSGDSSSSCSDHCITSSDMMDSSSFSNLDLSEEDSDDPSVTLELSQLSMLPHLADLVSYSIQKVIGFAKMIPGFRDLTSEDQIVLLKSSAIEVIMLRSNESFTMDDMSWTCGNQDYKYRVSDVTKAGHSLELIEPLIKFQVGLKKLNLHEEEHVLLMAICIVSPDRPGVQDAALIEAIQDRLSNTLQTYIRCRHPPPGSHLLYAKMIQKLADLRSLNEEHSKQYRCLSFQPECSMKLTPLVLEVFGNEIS
Assay: Induction of vitamin D receptor-mediated differentiation of human HL60 cells at 10^-6 M by NBT reduction method
Assay type: cell-based
Conditions: HL-60

SMILES: CCC(O)(CC)CCCCC12CCC(COCCC(O)CCO)(CC1)CC2 (stereo unspecified)
- Activity: Active
